Experimental data taken from BindingDB's records for doi:10.1021/jm2013826 (2012).

Target: Integrin alpha-IIb/beta-3 (Homo sapiens, UniProt P08514+P05106)
Assay: Inhibition of integrin alpha2bbeta3-mediated platelet aggregation in human TRAP-6-activated whole blood for 6 mins by impedence-based aggregometry

Sequence of Integrin alpha-IIb/beta-3 (P05106 27-788 limits assumed): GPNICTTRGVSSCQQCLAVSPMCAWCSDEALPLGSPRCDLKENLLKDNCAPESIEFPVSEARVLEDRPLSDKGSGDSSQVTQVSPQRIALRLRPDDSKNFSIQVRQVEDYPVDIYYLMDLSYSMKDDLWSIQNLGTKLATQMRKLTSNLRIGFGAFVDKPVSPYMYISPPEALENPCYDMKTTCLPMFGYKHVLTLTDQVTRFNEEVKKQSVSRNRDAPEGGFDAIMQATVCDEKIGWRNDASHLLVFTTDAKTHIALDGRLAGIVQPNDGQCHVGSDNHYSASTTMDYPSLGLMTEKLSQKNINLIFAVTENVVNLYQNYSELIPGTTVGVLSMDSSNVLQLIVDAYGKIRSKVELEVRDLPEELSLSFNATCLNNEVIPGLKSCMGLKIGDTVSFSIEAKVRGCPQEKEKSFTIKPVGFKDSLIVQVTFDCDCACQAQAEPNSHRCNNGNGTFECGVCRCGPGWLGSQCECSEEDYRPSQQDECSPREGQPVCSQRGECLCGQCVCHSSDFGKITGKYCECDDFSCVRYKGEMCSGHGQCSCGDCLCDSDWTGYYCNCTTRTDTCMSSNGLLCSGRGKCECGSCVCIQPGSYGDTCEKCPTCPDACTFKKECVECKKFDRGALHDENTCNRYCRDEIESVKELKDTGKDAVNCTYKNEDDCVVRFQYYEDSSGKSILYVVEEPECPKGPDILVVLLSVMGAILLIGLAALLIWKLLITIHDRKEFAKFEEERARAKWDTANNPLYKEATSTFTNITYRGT
Sequence of Integrin alpha-IIb/beta-3 (P08514 32-887 limits assumed): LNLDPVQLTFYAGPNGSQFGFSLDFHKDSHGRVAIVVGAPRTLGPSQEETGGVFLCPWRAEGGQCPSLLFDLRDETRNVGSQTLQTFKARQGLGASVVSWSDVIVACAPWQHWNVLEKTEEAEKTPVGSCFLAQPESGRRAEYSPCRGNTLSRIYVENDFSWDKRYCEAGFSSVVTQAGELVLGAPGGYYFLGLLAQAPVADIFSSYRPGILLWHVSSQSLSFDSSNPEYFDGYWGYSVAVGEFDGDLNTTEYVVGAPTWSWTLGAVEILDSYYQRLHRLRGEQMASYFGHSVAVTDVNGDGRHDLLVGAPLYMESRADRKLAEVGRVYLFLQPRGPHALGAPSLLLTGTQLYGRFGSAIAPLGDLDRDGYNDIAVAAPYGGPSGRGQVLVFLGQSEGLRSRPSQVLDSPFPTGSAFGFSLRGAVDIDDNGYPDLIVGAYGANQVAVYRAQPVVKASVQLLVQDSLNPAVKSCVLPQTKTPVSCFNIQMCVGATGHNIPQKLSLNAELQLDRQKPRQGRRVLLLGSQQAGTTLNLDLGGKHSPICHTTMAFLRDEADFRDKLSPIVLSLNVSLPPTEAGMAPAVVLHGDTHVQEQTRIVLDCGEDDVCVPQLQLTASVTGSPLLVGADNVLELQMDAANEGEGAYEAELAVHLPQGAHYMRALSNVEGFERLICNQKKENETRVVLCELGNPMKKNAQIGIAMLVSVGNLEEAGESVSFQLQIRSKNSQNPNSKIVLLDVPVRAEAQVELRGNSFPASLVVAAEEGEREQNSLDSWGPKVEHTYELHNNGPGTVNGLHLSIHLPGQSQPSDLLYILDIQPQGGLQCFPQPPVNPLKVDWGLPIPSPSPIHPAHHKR
Sequence of Integrin alpha-IIb/beta-3 (P08514 891-1039 limits assumed): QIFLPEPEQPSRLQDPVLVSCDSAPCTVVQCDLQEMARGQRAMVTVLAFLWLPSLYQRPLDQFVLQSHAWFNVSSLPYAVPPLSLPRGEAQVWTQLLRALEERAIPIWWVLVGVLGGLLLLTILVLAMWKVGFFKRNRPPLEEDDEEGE

| EC50 [nM] | SMILES |
| --- | --- |
| 7.8 | O=C(NC[C@H](NS(=O)(=O)c1ccccc1)[PH](=O)O)c1ccc(OCCC2CCNCC2)cc1 |
| 276 | O=C(NC[C@H](NS(=O)(=O)c1ccccc1)P(=O)(O)O)c1ccc(OCCC2CCNCC2)cc1 |
| 40.8 | COP(=O)(O)[C@H](CNC(=O)c1ccc(OCCC2CCNCC2)cc1)NS(=O)(=O)c1ccccc1 |
